Source: patent US12187727B2, “Methods for antagonizing a melanocortin 4 receptor” (Pfizer Inc., priority 2020, dated 2025)

Each compound was assayed against hMC4R (Homo sapiens (Human), UniProt P32245) (assay: In vitro binding affinity assay using hMC4R (radioligand competition binding, [125I]-(Nle4, D-Phe7)-α-MSH)). Details: geometric mean, read-out: Ki (nM) geometric.
Method: Example AA. In Vitro Binding Affinity Assay Using hMC4R
The binding affinity of test compounds at the […] (hMC4R) was assessed using a radioligand competition binding assay. […] Cell membranes were bulked and frozen until the assay was performed.
Compounds were solubilized in 100% dimethyl sulfoxide (DMSO) to a concentration of 30 mM. A 10-point intermediate dilution series using half log dilutions was created in 100% DMSO with a top concentration of 0.03 mM. […] The final compound range in the assay was 300 nM to 0.01 nM with a final DMSO concentration of 1%. […] The exact concentration of radioligand used for each experiment was determined by liquid scintillation counting and adjusted if necessary.
Frozen hMC4R cell membranes were thawed and Dounce homogenized. Homogenates were resuspended in assay buffer to a concentration of 2 μg per well. […] The plates were incubated for 2 hours at room temperature.
The raw data (expressed as counts per minute) were analyzed using ActivityBase (IDBS Data Management Software). […] Equilibrium dissociation constant for inhibitor of ligand and receptor interaction (Ki) values were then calculated from the IC50 values using the Cheng-Prusoff equation: Ki=IC50/(1+([L]/Kd)), where [L] is the concentration of the radioligand used in the experiment and Kd is the affinity of the radioligand (determined in separate saturation experiments).

hMC4R, sequence (P32245 whole entry): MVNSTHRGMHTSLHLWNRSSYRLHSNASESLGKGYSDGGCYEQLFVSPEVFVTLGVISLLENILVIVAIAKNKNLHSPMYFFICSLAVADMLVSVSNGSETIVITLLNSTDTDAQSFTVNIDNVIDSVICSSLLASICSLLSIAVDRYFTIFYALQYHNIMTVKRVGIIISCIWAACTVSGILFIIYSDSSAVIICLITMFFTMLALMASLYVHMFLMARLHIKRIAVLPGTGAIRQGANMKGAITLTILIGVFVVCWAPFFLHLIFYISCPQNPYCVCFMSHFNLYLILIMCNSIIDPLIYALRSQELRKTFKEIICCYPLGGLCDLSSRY

Ki	SMILES
> 250 nM	COc1cc([C@@H](C)C(=O)N2CC[C@@]3(CCc4cc(Cl)c(C)nc4N3)C2)c(F)cn1 (single isomer, unassigned) [Example 103]
29 nM	Cc1nc2c(cc1-c1nnn(C)n1)CC[C@@]1(CCN(C(=O)[C@H](C)c3ccc(C(F)(F)F)cc3)C1)N2 (single isomer, unassigned) [Example 110]
140 nM	COc1cc([C@@H](C)C(=O)N2CC[C@@]3(CCc4cc(-c5nnn(C)n5)c(C)nc4N3)C2)ccn1 (single isomer, unassigned) [Example 126]
63 nM	COc1ncc(F)c([C@@H](C)C(=O)N2CC[C@@]3(CCc4cc(-c5nc6ccccn6n5)c(C)nc4N3)C2)n1 (single isomer, unassigned) [Example 133]
28 nM	COc1cc([C@@H](C)C(=O)N2CC[C@@]3(CCc4cc(-c5ncccn5)c(C)nc4N3)C2)cc(OC(F)F)n1 (single isomer, unassigned) [Example 193]

Same assay, conditions: geometric mean, read-out: Ki (nM) geometric mean

Ki	SMILES
43 nM	COc1ccc([C@@H](C)C(=O)N2CC[C@@]3(CCc4cc(-c5ncccn5)c(C)nc4N3)C2)cc1F (single isomer, unassigned) [Example 43]
20 nM	COc1cc([C@](C)(F)C(=O)N2CC[C@@]3(CCc4cc(-c5ncccn5)c(C)nc4N3)C2)ccn1 (single isomer, unassigned) [Example 47]
99 nM	Cc1nc2c(cc1-c1ncccn1)CC[C@@]1(CCN(C(=O)[C@H](C)c3cc(OC(F)F)ncc3Cl)C1)N2 (single isomer, unassigned) [Example 59]
40 nM	COc1cc(OC(F)F)cc([C@@H](C)C(=O)N2CC[C@@]3(CCc4cc(-c5ncccn5)c(C)nc4N3)C2)c1 (single isomer, unassigned) [Example 61]
180 nM	Cc1nc2c(cc1-c1ncccn1)CC[C@@]1(CCN(C(=O)[C@H](C)c3cc(OC(F)(F)F)ncc3F)C1)N2 (single isomer, unassigned) [Example 75]
84 nM	Cc1nc2c(cc1-c1ncccn1)CC[C@@]1(CCN(C(=O)[C@H](C)c3cc(OC(F)F)ncc3F)C1)N2 (single isomer, unassigned) [Example 77]
> 250 nM	Cc1nc2c(cc1-c1ncccn1)CC[C@@]1(CCN(C(=O)[C@H](C)c3cc(C(F)(F)F)ncc3F)C1)N2 (single isomer, unassigned) [Example 79]
120 nM	Cc1nc2c(cc1-c1ncccn1)CC[C@@]1(CCN(C(=O)[C@H](C)c3cc(N(C)C)ncc3F)C1)N2 (single isomer, unassigned) [Example 82]
52 nM	COc1cc([C@@H](C)C(=O)N2CC[C@@]3(CCc4cc(-c5ncccn5)c(C)nc4N3)C2)cc(OC)n1 (single isomer, unassigned) [Example 84]
> 250 nM	COc1ncc(Cl)c([C@@H](C)C(=O)N2CC[C@@]3(CCc4cc(-c5ncccn5)c(C)nc4N3)C2)n1 (single isomer, unassigned) [Example 85]
2.3 nM	COc1ncc(Cl)c([C@@H](C)C(=O)N2CC[C@@]3(CCc4cc(-c5ncccn5)c(C)nc4N3)C2)n1 (single isomer, unassigned) [Example 86]
17 nM	COc1cc(OC)cc([C@@H](C)C(=O)N2CC[C@@]3(CCc4cc(-c5cnn(C)c5)c(C)nc4N3)C2)c1 (single isomer, unassigned) [Example 91]
100 nM	COc1cc(OC)cc([C@@H](C)C(=O)N2CC[C@@]3(CCc4ccc(C)nc4N3)C2)c1 (single isomer, unassigned) [Example 97]
81 nM	COc1cc([C@@H](C)C(=O)N2CC[C@@]3(CCc4ccc(C)nc4N3)C2)c(F)cn1 (single isomer, unassigned) [Example 99]
110 nM	COc1cc([C@@H](C)C(=O)N2CC[C@@]3(CCc4ccc(C)nc4N3)C2)c(Cl)cn1 (single isomer, unassigned) [Example 101]

SMILES	Ki
Cc1nc2c(cc1-c1ncccn1)CC[C@@]1(CCN(C(=O)C(C)c3cc(OC(F)(F)F)ncc3Cl)C1)N2 (single isomer, unassigned) [Example 63]	94 nM
